{"source": "patent US9878984B2", "about": "“Anti-cancer compounds” (NORTHWESTERN UNIVERSITY, priority 2008, dated 2018)", "tested_on": "Chk2", "assay": "DNA damage response assay (pThr68-Chk2 / total Chk2 western blot)", "assay_type": "cell-based, human", "conditions": "HeLa cells, [GI99%], 20 hr, normalized to mitoxantrone", "procedure": "DNA Damage Response Assay: 250,000 HeLa cells were plated in 35 mm culture dishes and allowed to attach for 8 hr and were then treated with the [GI99%] of each compound for 20 hr (total media volume was […] with 1% DMSO). After treatment cells were lysed in 150 μL detergent buffer containing 1:100 v/v protease inhibitor cocktail (Sigma—St. Louis, Mo.). Lysates were run on denaturing 12% acrylamide gels and transferred to nitrocellulose membranes. The membranes were blocked in blotto, incubated in anti-pThr68-Chk2 antibody (Cell Signaling—Danvers, Mass.) at 1:500 v/v dilution in blotto overnight 4° C., washed, incubated in HRP conjugated anti-rabbit secondary antibody (Jackson) at 1:5,000 v/v dilution in blotto for 1 hr, and then developed. The membranes were then stripped with a reducing buffer, blocked in blotto, incubated in anti-Chk2 antibody (Biolegend—San Diego, Calif.) at 1:500 v/v dilution in blotto overnight at 4° C., washed, incubated in HRP conjugated anti-mouse secondary antibody (Jackson) at 1:5,000 v/v dilution in blotto for 1 hr, and then developed. Membranes were developed with PicoWest Developing Solution (Pierce) and exposed to film. The intensities of bands were quantified as described in the previous section. The data are expressed as the average ratio of pThr68-Chk2 to total Chk2 as normalized to the mitoxantrone control in each of three independent experiments.\nTopoisomerase inhibition by most mechanisms should cause activation of DNA damage response pathways because of the production of single and double strand DNA breaks, as is the case with amonafide. […] Therefore, measuring the DNA damage response at a fixed cytotoxic dose ([GI99%]) will determine the extent that DNA damage contributes to the cytotoxicity of these compounds. […] Activation of Chk2 was determined by measuring the ratio of pThr68-Chk2 to total Chk2 in HeLa cells treated with the [GI99%].", "data": [{"molecule": "CN(C)CCN1C(=O)c2cccc3cc(N)cc(c23)C1=O", "note": "[amonafide, reference compound]", "values": [{"measurement": "DNA damage response (ratio of pThr68-Chk2 to total Chk2)", "result": "evoked the strongest DNA damage response"}]}]}
